Consider 13 molecules from US12590066B2, “Fused-heterocyclyl-carbonohydrazonoyl dicyanide compounds and use thereof” (KOREA INSTITUTE OF SCIENCE AND TECHNOLOGY, priority 2020, dated 2026).

Bounds are passed on as bounds.

Test in all cases: Inhibitory effect on CYP coenzyme activity, human liver microsomes
Assay type in all cases: in vitro ADME
On the technique in general: Microsomes from liver hold many membrane-bound enzymes, among them those of drug oxidation.

In one data set the target is T1, CYP2C19 (Homo sapiens, UniProt P33261).
T1 construct: human liver microsomes (0.25 mg/mL); from tissue; host or cells: human liver microsomes
T1 sequence (P33261 whole entry): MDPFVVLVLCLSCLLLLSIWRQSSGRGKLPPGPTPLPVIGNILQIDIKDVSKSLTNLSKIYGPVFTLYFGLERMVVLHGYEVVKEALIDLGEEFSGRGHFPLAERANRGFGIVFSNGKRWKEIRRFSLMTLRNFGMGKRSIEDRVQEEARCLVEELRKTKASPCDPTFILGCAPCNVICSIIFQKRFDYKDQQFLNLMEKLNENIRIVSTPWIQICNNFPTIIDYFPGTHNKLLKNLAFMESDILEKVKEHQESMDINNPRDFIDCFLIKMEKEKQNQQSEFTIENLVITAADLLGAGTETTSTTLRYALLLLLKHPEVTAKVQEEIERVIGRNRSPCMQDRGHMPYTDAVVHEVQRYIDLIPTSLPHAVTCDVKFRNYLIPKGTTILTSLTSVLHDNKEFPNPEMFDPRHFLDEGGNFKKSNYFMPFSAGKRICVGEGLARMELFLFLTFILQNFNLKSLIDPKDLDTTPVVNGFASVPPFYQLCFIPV
As to conditions: 10 μM compound, human liver microsomes 0.25 mg/mL, substrate S-mephenytoin, 15 minutes. Put shortly:
(§1)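 Activity (% of vehicle control) from LC-MS/MS MRM quantitation of substrate metabolites. HLM 0.25 mg/mL, pH 7.4 phosphate, cocktail of phenacetin 50 μM, diclofenac 10 μM, S-mephenytoin 100 μM, dextromethorphan 5 μM, midazolam 2.5 μM; test compound 10 μM; 37 °C, 5 min preincubation plus 15 min with NADPH system.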

The target in the next data set is T2, CYP3A4 (Homo sapiens, UniProt P08684).
T2 construct: human liver microsomes (0.25 mg/mL); from tissue; host or cells: human liver microsomes
T2 sequence (P08684 whole entry): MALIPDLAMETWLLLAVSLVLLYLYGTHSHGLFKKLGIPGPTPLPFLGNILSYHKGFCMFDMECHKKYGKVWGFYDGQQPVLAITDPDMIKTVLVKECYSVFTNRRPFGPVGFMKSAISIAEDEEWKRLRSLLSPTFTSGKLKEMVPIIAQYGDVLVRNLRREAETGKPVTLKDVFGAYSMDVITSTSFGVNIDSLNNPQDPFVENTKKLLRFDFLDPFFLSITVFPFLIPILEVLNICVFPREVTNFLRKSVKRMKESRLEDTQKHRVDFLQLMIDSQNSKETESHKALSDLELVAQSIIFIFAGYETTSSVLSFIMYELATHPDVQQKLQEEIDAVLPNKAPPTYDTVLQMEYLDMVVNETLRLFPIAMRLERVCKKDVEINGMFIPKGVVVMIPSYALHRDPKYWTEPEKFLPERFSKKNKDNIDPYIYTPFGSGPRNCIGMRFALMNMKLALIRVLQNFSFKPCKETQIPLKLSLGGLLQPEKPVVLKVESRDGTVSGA
As to conditions: 10 μM compound, human liver microsomes 0.25 mg/mL, substrate midazolam, 15 minutes. Put shortly:
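Human liver microsomes (0.25 mg/mL) in 0.1 M phosphate pH 7.4 were preincubated 5 min at 37 °C with a substrate cocktail (50 μM phenacetin, 10 μM diclofenac, 100 μM S-mephenytoin, 5 μM dextromethorphan, 2.5 μM midazolam) and 10 μM compound, then run 15 min with NADPH-generating system. Metabolites quantified by LC-MS/MS (MRM); activity expressed as % of untreated control.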

A further data set concerns the target T3, CYP1A2 (Homo sapiens, UniProt P05177).
T3 construct: human liver microsomes (0.25 mg/mL); from tissue; host or cells: human liver microsomes
T3 sequence (P05177 1-516): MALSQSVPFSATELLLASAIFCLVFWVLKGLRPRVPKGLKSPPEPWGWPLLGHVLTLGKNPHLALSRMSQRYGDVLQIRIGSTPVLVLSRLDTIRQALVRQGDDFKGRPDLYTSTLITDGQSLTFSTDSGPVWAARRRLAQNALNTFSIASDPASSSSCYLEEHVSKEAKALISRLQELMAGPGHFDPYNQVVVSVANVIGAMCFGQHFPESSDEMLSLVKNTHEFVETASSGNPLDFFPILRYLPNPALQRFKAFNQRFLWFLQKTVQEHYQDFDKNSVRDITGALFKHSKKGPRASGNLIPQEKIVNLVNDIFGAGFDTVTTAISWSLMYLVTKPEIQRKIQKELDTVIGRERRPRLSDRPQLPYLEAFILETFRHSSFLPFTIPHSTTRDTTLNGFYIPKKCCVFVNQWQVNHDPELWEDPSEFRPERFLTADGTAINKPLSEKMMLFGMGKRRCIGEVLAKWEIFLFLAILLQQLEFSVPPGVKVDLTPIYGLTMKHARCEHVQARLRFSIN
As to conditions: 10 μM compound, human liver microsomes 0.25 mg/mL, substrate phenacetin, 15 minutes. Put shortly:
as §1

The target in another data set is T4, CYP2D6 (Homo sapiens, UniProt P10635).
T4 construct: human liver microsomes (0.25 mg/mL); from tissue; host or cells: human liver microsomes
T4 sequence (P10635 whole entry): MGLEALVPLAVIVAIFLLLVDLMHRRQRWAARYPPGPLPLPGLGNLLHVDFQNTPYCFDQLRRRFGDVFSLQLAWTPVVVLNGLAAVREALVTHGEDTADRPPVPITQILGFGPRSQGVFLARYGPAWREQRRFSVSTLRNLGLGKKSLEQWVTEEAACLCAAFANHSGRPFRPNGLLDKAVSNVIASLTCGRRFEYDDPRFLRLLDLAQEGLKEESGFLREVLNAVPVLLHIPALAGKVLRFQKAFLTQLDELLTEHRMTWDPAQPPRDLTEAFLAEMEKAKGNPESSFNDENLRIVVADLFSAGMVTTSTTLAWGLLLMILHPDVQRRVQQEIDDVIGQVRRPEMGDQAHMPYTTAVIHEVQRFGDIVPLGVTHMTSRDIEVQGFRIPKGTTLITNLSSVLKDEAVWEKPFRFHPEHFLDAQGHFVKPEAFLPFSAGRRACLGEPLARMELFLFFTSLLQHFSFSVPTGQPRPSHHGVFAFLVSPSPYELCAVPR
The conditions noted are these: 10 μM compound, human liver microsomes 0.25 mg/mL, substrate dextromethorphan, 15 minutes. An outline of the steps: as §1

For the next data set, the target named is T5, CYP2C9 (Homo sapiens, UniProt P11712).
T5 construct: human liver microsomes (0.25 mg/mL); from tissue; host or cells: human liver microsomes
T5 sequence (P11712 whole entry): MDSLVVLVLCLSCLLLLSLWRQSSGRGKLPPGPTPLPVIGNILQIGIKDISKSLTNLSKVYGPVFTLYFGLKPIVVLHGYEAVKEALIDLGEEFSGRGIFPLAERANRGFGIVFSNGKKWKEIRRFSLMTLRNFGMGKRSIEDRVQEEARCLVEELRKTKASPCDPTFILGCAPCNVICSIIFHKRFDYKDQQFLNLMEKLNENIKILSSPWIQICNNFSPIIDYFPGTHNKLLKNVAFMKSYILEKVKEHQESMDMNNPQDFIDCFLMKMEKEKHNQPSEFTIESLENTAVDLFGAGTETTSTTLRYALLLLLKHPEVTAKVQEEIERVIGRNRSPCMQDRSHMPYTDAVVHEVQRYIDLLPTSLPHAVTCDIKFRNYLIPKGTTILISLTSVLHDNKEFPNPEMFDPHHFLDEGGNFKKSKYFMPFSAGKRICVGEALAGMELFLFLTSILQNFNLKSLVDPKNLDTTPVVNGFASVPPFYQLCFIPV
The conditions noted are these: 10 μM compound, human liver microsomes 0.25 mg/mL, substrate diclofenac, 15 minutes. Put shortly:
as §1

As for `N#CC(C#N)=NNc1ccc2c(c1)n(C(F)F)c(=O)n2C(F)F` [Compound 24, (1,3-bis(difluoromethyl)-2-oxo-2,3-dihydro-1H-benzo[d]imidazol-5-yl)carbonohydrazonoyl dicyanide], the “CYP2C19 coenzyme activity (%) with respect to control group not treated” value at CYP2C19 is on record as 73.9%. Further, on CYP3A4, the “CYP3A4 coenzyme activity (%) with respect to control group not treated” value was 78.1%. Moreover, the “CYP1A2 coenzyme activity (%) with respect to control group not treated” value on CYP1A2 was found to be 32.8%. Besides, the “CYP2D6 coenzyme activity (%) with respect to control group not treated” value at CYP2D6 is 82.5%. In addition, the “CYP2C9 coenzyme activity (%) with respect to control group not treated” value at CYP2C9 was 40.6%.
Turning to `CC(C)n1c(=O)oc2ccc(NN=C(C#N)C#N)cc21` [Compound 29, (3-isopropyl-2-oxo-2,3-dihydrobenzo[d]oxazol-5-yl)carbonohydrazonoyl dicyanide], the “CYP2C19 coenzyme activity (%) with respect to control group not treated” value on CYP2C19 is 91.3%. The “CYP3A4 coenzyme activity (%) with respect to control group not treated” value on CYP3A4 is more than 100%. Moreover, the “CYP1A2 coenzyme activity (%) with respect to control group not treated” value on CYP1A2 came to 97.3%. For the same molecule, on CYP2D6, the “CYP2D6 coenzyme activity (%) with respect to control group not treated” value is listed as 94.2%. For the same molecule, the “CYP2C9 coenzyme activity (%) with respect to control group not treated” value on CYP2C9 is recorded as 4.7%.
For `COc1cc(NN=C(C#N)C#N)cc2c1n(C)c(=O)n2C` [Compound 33, (7-methoxy-1,3-dimethyl-2-oxo-2,3-dihydro-1H-benzo[d]imidazol-5-yl)carbonohydrazonoyl dicyanide], in that order: more than 100%, 97.6%, 37.8%, more than 100% and 69.9%.
Regarding `CC(C)n1c(=O)n(C(C)C)c2ncc(NN=C(C#N)C#N)cc21` [Compound 34, (1,3-diisopropyl-2-oxo-2,3-dihydro-1H-imidazo[4,5-b]pyridin-6-yl)carbonohydrazonoyl dicyanide], the “CYP2C19 coenzyme activity (%) with respect to control group not treated” value on CYP2C19 is recorded as 88.8%. Besides, at CYP3A4, the “CYP3A4 coenzyme activity (%) with respect to control group not treated” value is recorded as 90.2%. In addition, the “CYP1A2 coenzyme activity (%) with respect to control group not treated” value at CYP1A2 is more than 100%. Moreover, the “CYP2D6 coenzyme activity (%) with respect to control group not treated” value at CYP2D6 is listed as 99.1%. For the same molecule, the “CYP2C9 coenzyme activity (%) with respect to control group not treated” value at CYP2C9 was 41.9%.
The matching figures for `CCn1c(=O)n(C)c2ccc(NN=C(C#N)C#N)cc21` [Compound 35, (3-ethyl-1-methyl-2-oxo-2,3-dihydro-1H-benzo[d]imidazol-5-yl)carbonohydrazonoyl dicyanide]: 100%, more than 100%, 93.1%, more than 100% and 72.5%.
For `CC(C)n1c(=O)n(C)c2ccc(NN=C(C#N)C#N)cc21` [Compound 36, (3-isopropyl-1-methyl-2-oxo-2,3-dihydro-1H-benzo[d]imidazol-5-yl)carbonohydrazonoyl dicyanide], in that order: 89.5%, 95.8%, 93.7%, more than 100% and 36.6%.
For `Cn1c(=O)n(C(F)F)c2cc(NN=C(C#N)C#N)ccc21` [Compound 37, (3-(difluoromethyl)-1-methyl-2-oxo-2,3-dihydro-1H-benzo[d]imidazol-5-yl)carbonohydrazonoyl dicyanide], in that order: 90.7%, 96.7%, 64.6%, more than 100% and 29.2%.
On to `CCn1c(=O)n(C)c2cc(NN=C(C#N)C#N)ccc21` [Compound 38, (1-ethyl-3-methyl-2-oxo-2,3-dihydro-1H-benzo[d]imidazol-5-yl)carbonohydrazonoyl dicyanide], for which the “CYP2C19 coenzyme activity (%) with respect to control group not treated” value at CYP2C19 is reported as more than 100%. The “CYP3A4 coenzyme activity (%) with respect to control group not treated” value at CYP3A4 is given as more than 100%. Further, the “CYP1A2 coenzyme activity (%) with respect to control group not treated” value on CYP1A2 was 98.9%. For the same molecule, the “CYP2D6 coenzyme activity (%) with respect to control group not treated” value at CYP2D6 was more than 100%. The “CYP2C9 coenzyme activity (%) with respect to control group not treated” value at CYP2C9 amounted to 92.6%.
Regarding `CC(C)n1c(=O)n(C2CC2)c2ccc(NN=C(C#N)C#N)cc21` [Compound 42, (1-cyclopropyl-3-isopropyl-2-oxo-2,3-dihydro-1H-benzo[d]imidazol-5-yl)carbonohydrazonoyl dicyanide], at CYP2C19, the “CYP2C19 coenzyme activity (%) with respect to control group not treated” value is more than 100%. The “CYP3A4 coenzyme activity (%) with respect to control group not treated” value on CYP3A4 was 93.5%. In addition, the “CYP1A2 coenzyme activity (%) with respect to control group not treated” value on CYP1A2 is 91.9%. In addition, the “CYP2D6 coenzyme activity (%) with respect to control group not treated” value on CYP2D6 is reported as more than 100%. For the same molecule, the “CYP2C9 coenzyme activity (%) with respect to control group not treated” value at CYP2C9 was 59.6%.
As for `CC(C)n1c(=O)n(C(F)F)c2cc(NN=C(C#N)C#N)ccc21` [Compound 43, (3-(difluoromethyl)-1-isopropyl-2-oxo-2,3-dihydro-1H-benzo[d]imidazol-5-yl)carbonohydrazonoyl dicyanide], the “CYP2C19 coenzyme activity (%) with respect to control group not treated” value at CYP2C19 is listed as 60.2%. Besides, the “CYP3A4 coenzyme activity (%) with respect to control group not treated” value on CYP3A4 is listed as 72.6%. Also, on CYP1A2, the “CYP1A2 coenzyme activity (%) with respect to control group not treated” value is reported as 61.7%. For the same molecule, the “CYP2D6 coenzyme activity (%) with respect to control group not treated” value on CYP2D6 was found to be 82.2%. Further, on CYP2C9, the “CYP2C9 coenzyme activity (%) with respect to control group not treated” value turned out to be 14.1%.
The matching figures for `CCn1c(=O)n(C)c2cc(NN=C(C#N)C#N)cnc21` [Compound 48, (3-ethyl-1-methyl-2-oxo-2,3-dihydro-1H-imidazo[4,5-b]pyridin-6-yl)carbonohydrazonoyl dicyanide]: more than 100%, more than 100%, more than 100%, more than 100% and more than 100%.
The matching figures for `CC(C)n1c(=O)n(C2CC2)c2ncc(NN=C(C#N)C#N)cc21` [Compound 53, (3-cyclopropyl-1-isopropyl-2-oxo-2,3-dihydro-1H-imidazo[4,5-b]pyridin-6-yl)carbonohydrazonoyl dicyanide]: more than 100%, 97.8%, more than 100%, more than 100% and 75.3%.
For `CCn1c(=O)n(C(C)C)c2ncc(NN=C(C#N)C#N)cc21` [Compound 55, (1-ethyl-3-isopropyl-2-oxo-2,3-dihydro-1H-imidazo[4,5-b]pyridin-6-yl)carbonohydrazonoyl dicyanide], in that order: 73.1%, 78%, 58.4%, 85.8% and 38.9%.
